# Source: paper PMC7004565, “Nucleotide inhibition of the pancreatic ATP-sensitive K^+ channel explored with patch-clamp fluorometry” (eLife, 2020)
# Where two headings read alike, the source gives them in different places.
# Key:
# Kir6.2*,C166S-GFP + SUR1 [1] = target: T1, Kir6.2*,C166S-GFP + SUR1 (Homo sapiens, UniProt Q14654, C166S); assay: ANAP fluorescence quenching in excised patches (patch-clamp fluorometry); format: binding; set-up: ANAP labelling is specific and only full-length Kir6.2 is expressed at the cell membrane; expressed in transfected cells; host or cells: HEK-293T; conditions: excised patches (PCF), Hill fit
# Method: Currents were measured as described above.
# ANAP bleaching was corrected as for the unroofed binding experiments with Equation 1 (Figure 2—figure supplement 3A). Due to the lower signal-to-noise ratio for PCF compared to the unroofed membranes, we performed experiments from both high-to-low and low-to-high TNP-ATP concentrations to minimise artifacts from our bleaching corrections.
# Kir6.2*,C166S-GFP + SUR1 [2] = target: T1, Kir6.2*,C166S-GFP + SUR1; assay: Bayesian MWC-type model fits to combined patch-clamp fluorometry data; format: biochemical; set-up: ANAP labelling is specific and only full-length Kir6.2 is expressed at the cell membrane; expressed in transfected cells; host or cells: HEK-293T; conditions: for Kd: read-out: KA (intrinsic binding affinity to the closed state) (converted)
# Text: Our simultaneous binding and current measurements were well fit with a Monod-Wyman-Changeux (MWC)-type model (Figure 2D,E; [Monod et al., 1965]) which has been previously proposed to explain KATP channel inhibition ([Enkvetchakul and Nichols, 2003]; [Craig et al., 2008]; [Vedovato et al., 2015]). In our MWC-type model, each ligand binding event ( KA ) is independent and each bound ligand favours the closed state by the same factor ( D ). Simultaneous measurement of binding (fluorescence) and gating (current) allowed us to obtain well constrained fits to our model. To obtain free parameter ( L , KA , D ) estimates and verify that each parameter was well and uniquely determined, we employed a Bayesian Markov chain Monte Carlo (MCMC) method previously employed by [Hines et al. (2014)]. Using this approach, we constructed posterior probability distributions for the free parameters of our MWC-type model (Figure 2F, Table 3). […] Our estimate of L was quite low and broadly distributed. We repeated our fits with L fixed to a value consistent with previous single channel measurements (0.8, Popen=0.45; [John et al., 1998]; [Enkvetchakul et al., 2000]; [Ribalet et al., 2006]). This had only a very small effect on our estimates of D and KA (Figure 2—figure supplement 1). The broad distribution of L in our fit may represent current rundown which occurs during our patch-clamp recordings and is expected to affect the open-closed equilibrium.
# In addition to the full MWC-type model we considered alternate models (Figure 2—figure supplement 2). These included a model in which only the first binding event influences the open-closed equilibrium of the channel (single-binding model; Figure 2—figure supplement 2B, Table 3), and an MWC-style model with an additional parameter C to allow for direct negative cooperativity between binding sites (negative cooperativity model; Figure 2—figure supplement 2C, Table 3). The single-binding model yielded very similar parameter estimates to our full MWC-type model (Figure 2—figure supplement 2D, Table 3). This is a consequence of D being so low that even in the MWC-type model most channels are closed when only a single nucleotide is bound. The cooperative model improved our fits, but not enough to justify the inclusion of an additional free parameter (see Discussion).
# The MWC-type models considered (Figure 2 and Figure 2—figure supplement 2) were formulated as follows:(3) F/Fmax=KA[TNPATP](1+KA[TNPATP])^3+LDKA[TNPATP](1+DKA[TNPATP])^3/(1+KA[TNPATP])^4+L(1+DKA[TNPATP])^4 (4) open channels/total channels=L(1+DKA[TNPATP])^4/(1+KA[TNPATP])^4+L(1+DKA[TNPATP])^4
# The first was similar to the MWC-type model, except that the channels close after one molecule of TNP-ATP binding with subsequent binding events having no effect.(7) F/Fmax=LDKA[TNPATP](1+3KA[TNPATP]+3KA2[TNPATP]^2+KA3[TNPATP]^3)+KA[TNPATP](1+KA[TNPATP])^3/L(1+4DKA[TNPATP]+6DKA2[TNPATP]^2+4DKA3[TNPATP]^3+DKA4[TNPATP]^4)+(1+KA[TNPATP])^4 (8) I/Imax=L(1+4DKA[TNPATP]+6DKA2[TNPATP]^2+4DKA3[TNPATP]^3+DKA4[TNPATP]^4)/L(1+4DKA[TNPATP]+6DKA2[TNPATP]^2+4DKA3[TNPATP]^3+DKA4[TNPATP]^4)+(1+KA[TNPATP])^4⋅1+L/L
# The second alternate model was the same as the full MWC model, but with an additional term C describing binding cooperativity between Kir6.2 subunits.(9) F/Fmax=LDKA[TNPATP](1+3CDKA[TNPATP]+3C^2D^2KA2[TNPATP]^2+C^3D^3KA3[TNPATP]^3)+KA[TNPATP](1+3CKA[TNPATP])+3C^2KA2[TNPATP]^2+C^3KA3[TNPATP]^3)/L(1+4DKA[TNPATP]+6CD^2KA2[TNPATP]^2+4C^2D^3KA3[TNPATP]^3+C^3D^4KA4[TNPATP]^4)+1+4KA[TNPATP]+6CKA2[TNPATP]^2+4C^2KA3[TNPATP]^3+C^3KA4[TNPATP]^4 (10) I/Imax=L(1+4DKA[TNPATP]+6CD^2KA2[TNPATP]^2+4C^2D^3KA3[TNPATP]^3+C^3D^4KA4[TNPATP]^4)/L(1+4DKA[TNPATP]+6CD^2KA2[TNPATP]^2+4C^2D^3KA3[TNPATP]^3+C^3D^4KA4[TNPATP]^4)+1+4KA[TNPATP]+6C^2KA2[TNPATP]^2+4C^2KA3[TNPATP]^3+C^3KA4[TNPATP]^4⋅1+L/L […]
# [3] = Full MWC model, median estimate
# [4] = Single-site (single-binding) model
# T1 sequence (Q14654 whole entry C166S): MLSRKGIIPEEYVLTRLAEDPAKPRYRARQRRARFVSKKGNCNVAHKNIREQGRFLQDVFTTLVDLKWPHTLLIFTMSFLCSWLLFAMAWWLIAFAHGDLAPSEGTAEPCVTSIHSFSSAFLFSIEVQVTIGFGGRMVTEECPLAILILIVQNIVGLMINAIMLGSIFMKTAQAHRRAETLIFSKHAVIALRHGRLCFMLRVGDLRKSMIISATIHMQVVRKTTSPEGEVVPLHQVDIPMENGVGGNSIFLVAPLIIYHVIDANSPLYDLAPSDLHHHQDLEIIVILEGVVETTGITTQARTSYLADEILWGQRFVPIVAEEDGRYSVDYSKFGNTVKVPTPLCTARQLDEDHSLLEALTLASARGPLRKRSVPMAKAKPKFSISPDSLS
# T1 sequence (Q09428 whole entry partner): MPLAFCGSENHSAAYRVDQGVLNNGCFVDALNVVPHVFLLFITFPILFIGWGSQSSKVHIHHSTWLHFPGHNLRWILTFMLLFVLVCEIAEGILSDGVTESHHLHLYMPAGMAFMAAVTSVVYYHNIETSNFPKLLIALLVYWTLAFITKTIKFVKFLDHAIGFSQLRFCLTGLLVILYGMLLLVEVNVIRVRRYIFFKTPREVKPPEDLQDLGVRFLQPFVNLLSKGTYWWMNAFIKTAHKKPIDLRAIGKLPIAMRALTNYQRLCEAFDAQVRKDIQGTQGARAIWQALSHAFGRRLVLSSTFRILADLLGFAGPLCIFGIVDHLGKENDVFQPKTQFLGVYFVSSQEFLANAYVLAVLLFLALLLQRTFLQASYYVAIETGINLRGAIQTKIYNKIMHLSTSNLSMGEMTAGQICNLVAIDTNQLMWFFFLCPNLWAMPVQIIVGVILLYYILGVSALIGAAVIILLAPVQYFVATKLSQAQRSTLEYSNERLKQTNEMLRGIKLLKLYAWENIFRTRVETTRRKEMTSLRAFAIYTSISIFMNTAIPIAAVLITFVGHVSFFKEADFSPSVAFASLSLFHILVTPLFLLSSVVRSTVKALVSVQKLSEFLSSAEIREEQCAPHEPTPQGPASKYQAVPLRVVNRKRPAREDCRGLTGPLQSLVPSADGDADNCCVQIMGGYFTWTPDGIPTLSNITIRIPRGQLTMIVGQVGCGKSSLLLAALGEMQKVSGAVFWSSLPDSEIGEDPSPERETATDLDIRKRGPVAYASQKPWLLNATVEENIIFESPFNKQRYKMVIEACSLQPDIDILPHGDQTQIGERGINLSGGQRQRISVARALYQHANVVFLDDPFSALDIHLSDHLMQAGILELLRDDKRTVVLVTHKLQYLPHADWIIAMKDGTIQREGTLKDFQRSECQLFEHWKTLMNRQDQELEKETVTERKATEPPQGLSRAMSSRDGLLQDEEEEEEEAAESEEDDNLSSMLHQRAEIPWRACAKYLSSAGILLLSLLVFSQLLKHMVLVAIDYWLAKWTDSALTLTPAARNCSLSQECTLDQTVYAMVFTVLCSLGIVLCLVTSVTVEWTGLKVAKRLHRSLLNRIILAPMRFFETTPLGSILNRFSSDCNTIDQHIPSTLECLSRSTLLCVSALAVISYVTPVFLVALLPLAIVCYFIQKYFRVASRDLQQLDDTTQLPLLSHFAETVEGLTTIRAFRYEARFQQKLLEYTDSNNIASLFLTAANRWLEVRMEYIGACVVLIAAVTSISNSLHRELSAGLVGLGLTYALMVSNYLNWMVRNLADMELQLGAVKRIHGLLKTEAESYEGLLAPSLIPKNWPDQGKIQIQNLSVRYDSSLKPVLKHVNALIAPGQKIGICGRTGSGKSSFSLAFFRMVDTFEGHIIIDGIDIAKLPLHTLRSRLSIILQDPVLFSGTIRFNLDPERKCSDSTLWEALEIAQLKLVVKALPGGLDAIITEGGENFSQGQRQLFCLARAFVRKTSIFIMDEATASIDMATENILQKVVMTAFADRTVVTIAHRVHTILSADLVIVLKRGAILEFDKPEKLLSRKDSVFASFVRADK
compound,measurement,setting,value
"Nc1ncnc2c1ncn2[C@@H]1O[C@H](COP(=O)(O)OP(=O)(O)OP(=O)(O)O)[C@H]2OC3(O[C@H]21)C([N+](=O)[O-])=CC(=[N+]([O-])[O-])C=C3[N+](=O)[O-] (stereo partly shown) [TNP-ATP, trinitrophenyl-ATP]",h (Hill coefficient) fluorescence quenching,"Kir6.2*,C166S-GFP + SUR1 [1]",0.84
same,Emax,"Kir6.2*,C166S-GFP + SUR1 [1]; fraction",100%
same,EC50,"Kir6.2*,C166S-GFP + SUR1 [1]; n = 6",67.6 µM
same,D (factor by which nucleotide binding favours channel closure),"Kir6.2*,C166S-GFP + SUR1 [2]; [3]",0.84
same,L (unliganded open-closed equilibrium constant),"Kir6.2*,C166S-GFP + SUR1 [2]; [3]",0.29 log10
same,Kd,"Kir6.2*,C166S-GFP + SUR1 [2]; [3]",66.1 µM
same,C (binding cooperativity between Kir6.2 subunits),"Kir6.2*,C166S-GFP + SUR1 [2]; Negative cooperativity model",0.52
same,D (factor by which nucleotide binding favours channel closure),"Kir6.2*,C166S-GFP + SUR1 [2]; Negative cooperativity model",0.83
same,L (unliganded open-closed equilibrium constant),"Kir6.2*,C166S-GFP + SUR1 [2]; Negative cooperativity model",0.32 log10
same,Kd,"Kir6.2*,C166S-GFP + SUR1 [2]; Negative cooperativity model",37.2 µM
same,D (factor by which nucleotide binding favours channel closure),"Kir6.2*,C166S-GFP + SUR1 [2]; [4]",0.70
same,L (unliganded open-closed equilibrium constant),"Kir6.2*,C166S-GFP + SUR1 [2]; [4]",0.09 log10
same,Kd,"Kir6.2*,C166S-GFP + SUR1 [2]; [4]",70.8 µM
